For data set [1] the following is noted: reported by Arichi et al., Chem. Pharm. Bull. 30(5) 1766-1770 (1982); cited from earlier work.
Data set [2] concerns fat fed, STZ treated male Sprague Dawley rats. In words: Serum triglyceride levels in fat-fed STZ treated rats (model of hypertriglyceridemia). Format: in vivo, rat. The source says:
This example illustrates the effectiveness of the stilbenoids of formula (I) in reducing serum triglyceride levels in fat-fed STZ treated male Sprague Dawley rats, i.e., an art-recognized model of hypertriglyceridemia.
This example illustrates the effectiveness of the stilbenoids of formula (I), e.g. longistyline A-2-carboxylic acid (Compound A) in reducing serum triglyceride levels in fat fed, STZ treated male Sprague Dawley rats, i.e., an art recognized model of hypertriglyceridemia. […]
Blood samples from tail snips bleeds were collected six hours after the dose on day one, and three (3) and six (6) hours after the administration of the dose on days 2 through 4 into M brand (Becton Dickinson, Franklin Lakes, NJ) serum separator tubes, and centrifuged at 12,000 rpm for 10 minutes. Serum was removed and triglyceride levels were measured using enzymatic […] methods (M. W. McGowan, et al., Clin. Chem. 29, 538 (1983) and P Trinder, Ann. Clin. Biochem. 6, 24 (1969)) using Sigma Diagnostic Kits, Sigma Chemical Company, St. Louis, Mo.
Triglyceride levels are expressed as the mean +SEM. Data were analyzed by one-way analysis of variance (ANOVA), followed by post-hoc Fisher's protected least squares difference (PLSD) tests. […]

A short description of data set [3]: Body weight in fat fed, STZ treated rats. Format: in vivo, rat. Conditions: 250 mg/kg q.d., FIG. 3. How it is done:
FIG. 3 is a line graph showing the mean body weight […] in fat fed, STZ treated rats administered with GELUCIRE™ vehicle only; and 3-hydroxy-4-(3-methyl-2-butenyl)-5-methoxystilbene-2-carboxylic acid (Compound A). -O- represents vehicle; and -▪- represents Compound A administered at 250 mg/kg q.d. Animals were administered the vehicle and compounds at 24, 48, 72 and 96 h, and […] were measured at 0, 30, 51, 54, 75 and 80 hours after the oral administration. All data points N=8. *P<0.05 (analysis of variance (ANOVA), one factor).
(§1) Male Sprague Dawley rats arrival from Charles River Laboratories, Hollister, Calif., were fed a high fat (20% by weight) diet (TD 78463) obtained from Harlan Teklad, Madison, Wis., which was stored at 4° C. prior to use. Administration of a high fed diet is a well-known method of inducing hypertriglyceridemia in rats.
(§2) Compound A formulations were prepared fresh daily. The appropriate amount of Compound A in GELUCIRE™ was administered by oral gavage at a volume of 2.5 ml/kg of body weight. Animals were fasted at 8:00 am each day.

Data set [4] in a line: Food consumption in fat fed, STZ treated rats. Format: in vivo, rat. Conditions: 250 mg/kg q.d., FIG. 4. How it is done: FIG. 4 is a line graph showing the mean food consumption (mg) in fat fed, STZ treated rats administered with GELUCIRE™ vehicle only; and 3-hydroxy-4-(3-methyl-2-butenyl)-5-methoxystilbene-2-carboxylic acid (Compound A). -O- represents vehicle; and -▪- represents Compound A administered at 250 mg/kg q.d. Animals were administered the vehicle and compounds at 24, 48, 72 and 96 h, and […] were measured at 0, 30, 51, 54, 75 and 80 hours after the oral administration. All data points N=8. *P<0.05 (analysis of variance (ANOVA), one factor).
as §1, §2

For data set [5] the following is noted: reported by Inamori et al., Chem. Phar. Bull. 33(7):2904-09 (1985); cited from earlier work.

Turning to `OC[C@H]1OC(Oc2c(O)cc(O)cc2C=Cc2ccc(O)cc2)[C@H](O)[C@@H](O)[C@@H]1O` (stereo partly drawn) [2,3,5,4′-tetrahydroxy stilbene-2-O-D-glucoside], the Serum triglyceride levels result in data set [1] is recorded as “reduce”.
`OC[C@H]1O[C@@H](Oc2cc(O)cc(/C=C/c3ccc(O)cc3)c2)[C@H](O)[C@@H](O)[C@@H]1O` [Piceid, 3,4′,5-trihydroxystilbene-3-O-β-D-glucopyranoside]: in data set [1], the Liver lipid levels result was “lower” and the Serum triglyceride levels entry is reported as “lower”.
Take `COc1cc(/C=C/c2ccccc2)c(C(=O)O)c(O)c1CC=C(C)C` [Compound A, 3-hydroxy-4-(3-methyl-2-butenyl)-5-methoxystilbene-2-carboxylic acid]: in data set [2] (250 mg/kg body weight q.d. oral gavage in GELUCIRE vehicle, fat fed STZ rats, N=8, p<0.05, FIG. 2), the “Serum triglyceride (TG) levels vs vehicle only, at each of the time points” value was “significantly lower”. Besides, the “Mean TG levels vs GELUCIRE vehicle group, compared at individual sampling times” value in data set [2] (250 mg/kg body weight q.d., from day 2 through the end of treatment) is given as “significantly lower”. In addition, the “Gain in rat body weight over the course of treatment” value in data set [3] was “normal and similar among the treatment groups”. Further, the “Food intake (daily mean food consumption)” value in data set [4] is recorded as “not effected by the treatments”.
On to `Oc1cc(O)cc(C=Cc2ccc(O)c(O)c2)c1` [3,3′,4,5′-tetrahydroxystilbene], for which the Antifungal activity result in data set [5] was “strong”.

Source of the values: US20020055541A1, “Compositions containing hypotriglyceridemically active stilbenoids” (Shaman Pharmaceuticals, Inc., priority 2000, published 2002).
